# Values quoted from earlier work as cited in publication PMC5736175, “Nicotinic alpha 7 receptor agonists EVP-6124 and BMS-933043, attenuate scopolamine-induced deficits in visuo-spatial paired associates learning” (PLoS ONE, 2017).
# System: human nAChR α7
# Set-up: method as in PMID 27467081
# Details: intrinsic activity; HEK293 cells expressing human nAChR α7; cited from earlier work
smiles,measurement,value
"c1cn(-c2cc(NC3=NC[C@@]4(CN5CCC4CC5)O3)ncn2)cn1 [BMS-933043, (2R)-N-(6-(1H-imidazol-1-yl)-4-pyrimidinyl)-4'H-spiro[4-azabicyclo[2.2.2]octane-2,5'-[1, 3]oxazol]-2'-amine]",net charge relative to acetylcholine,78%
same,peak current response relative to acetylcholine,24%
